Each molecule was assayed on bleomycin-induced pulmonary fibrosis model (assay: Comparison with comparative drugs: bleomycin-induced model, hydroxyproline and TGF-β). Details: 120 mg/kg/d intragastric, twice every day, 14 days, from two weeks after model; Day 15.
Type: in vivo, C57BL/6 mice
For `CC(C)n1cnc2c(=O)[nH]cnc21` [Compound E-1], the “Hydroxyproline in bronchoalveolar lavage fluids” value was 1.14 ± 0.16 µg/mg, the “Hydroxyproline in lung tissues” value was 2.18 ± 0.32 µg/mg and the “TGF-β in bronchoalveolar lavage fluids” value was 6.51 ± 0.24 µg/L. The “TGF-β in lung tissues” value was 63.95 ± 2.19 µg/L.
`CC(C)n1cnc2[nH]cnc2c1=S` [Compound E-5] was tested, and the “Hydroxyproline in bronchoalveolar lavage fluids” value was 1.17 ± 0.16 µg/mg, the “Hydroxyproline in lung tissues” value was 2.15 ± 0.35 µg/mg and the “TGF-β in bronchoalveolar lavage fluids” value was 6.51 ± 0.86 µg/L. For the same molecule, the “TGF-β in lung tissues” value was 65.82 ± 3.54 µg/L.
In the case of `CC(C)n1cnc2c(ncn2C(C)C)c1=S` [Hypoxanthine analogue D], the “Hydroxyproline in bronchoalveolar lavage fluids” value is reported as 1.94 ± 0.13 µg/mg, the “Hydroxyproline in lung tissues” value is reported as 2.15 ± 0.35 µg/mg and the “TGF-β in bronchoalveolar lavage fluids” value is reported as 6.42 ± 1.02 µg/L. The “TGF-β in lung tissues” value was 93.36 ± 8.51 µg/L.
In the case of `CC(C)n1cnc2c(ncn2C(C)C)c1=O` [Compound E-3], the “Hydroxyproline in bronchoalveolar lavage fluids” value is reported as 1.03 ± 0.29 µg/mg, the “Hydroxyproline in lung tissues” value is reported as 2.15 ± 0.23 µg/mg and the “TGF-β in bronchoalveolar lavage fluids” value is reported as 6.35 ± 0.28 µg/L. For the same molecule, the “TGF-β in lung tissues” value was 62.54 ± 1.28 µg/L.
For `CC(C)n1cnc2[nH]cnc2c1=O` [Compound E-2], the “Hydroxyproline in bronchoalveolar lavage fluids” value was 1.16 ± 0.28 µg/mg, the “Hydroxyproline in lung tissues” value was 1.93 ± 0.24 µg/mg and the “TGF-β in bronchoalveolar lavage fluids” value was 6.21 ± 0.24 µg/L. For the same molecule, the “TGF-β in lung tissues” value was 66.56 ± 1.95 µg/L.
In the case of `CC(C)n1cnc2[nH]cnc2c1=N` [Compound E-8], the “Hydroxyproline in bronchoalveolar lavage fluids” value is reported as 1.06 ± 0.19 µg/mg, the “Hydroxyproline in lung tissues” value is reported as 2.03 ± 0.51 µg/mg and the “TGF-β in bronchoalveolar lavage fluids” value is reported as 6.51 ± 0.58 µg/L. The “TGF-β in lung tissues” value was 68.54 ± 2.25 µg/L.
`CC(C)n1cnc2c(=N)[nH]cnc21` [Compound E-7] was tested, and the “Hydroxyproline in bronchoalveolar lavage fluids” value was 1.15 ± 0.18 µg/mg, the “Hydroxyproline in lung tissues” value was 1.99 ± 0.25 µg/mg and the “TGF-β in bronchoalveolar lavage fluids” value was 6.38 ± 0.95 µg/L. For the same molecule, the “TGF-β in lung tissues” value was 68.25 ± 2.58 µg/L.
`CC(C)n1cnc2c(=S)[nH]cnc21` [Compound E-4] was tested, and the “Hydroxyproline in bronchoalveolar lavage fluids” value was 1.14 ± 0.18 µg/mg, the “Hydroxyproline in lung tissues” value was 1.98 ± 0.44 µg/mg and the “TGF-β in bronchoalveolar lavage fluids” value was 6.84 ± 0.95 µg/L. For the same molecule, the “TGF-β in lung tissues” value was 63.58 ± 2.95 µg/L.
`CC(C)n1cnc2c(=O)n(C)cnc21` [Compound E-6] was tested, and the “Hydroxyproline in bronchoalveolar lavage fluids” value was 1.18 ± 0.15 µg/mg, the “Hydroxyproline in lung tissues” value was 2.35 ± 0.24 µg/mg and the “TGF-β in bronchoalveolar lavage fluids” value was 6.14 ± 0.85 µg/L. For the same molecule, the “TGF-β in lung tissues” value was 63.56 ± 6.54 µg/L.
